Peptide text beside a SMILES is read from it. * marks the point of attachment. Palmitoyl = CCCCCCCCCCCCCCCC(=O)*
System: wild-type C57B/L6J mice
Assay: Biliary lipid secretions, gallbladder cannulation, wild-type mice
Type: in vivo, mouse
Conditions: for bile flux / biliary secretion of bile acids / biliary secretion of cholesterol: C57BL/6 mice, vs PBS or SCR
Procedure: Wild-type C57B/L6J male mice were purchased from Janvier Labs (Le Genest Saint Isle, France). LDLR knock-out mice (males, C57B/L6J background) were obtained from The Jackson Laboratory (Bar Harbor, Me., USA). Mice were caged in animal rooms under specific pathogen free conditions at the animal facility of Rangueil (Anexplo platform, US006, Toulouse, France) with a light/dark schedule of 12 h/12 h and were fed ad libitum with a normal chow diet (#V1535 R/M-H, Ssniff, Germany). All animal experimental procedures were conducted in accordance with institutional guidelines on animal experimentation approved by the local ethical committee of animal care and are conformed to the guidelines from Directive 2010/63/EU of the European Parliament on the protection of animals used for scientific purposes or the NIH guideline.
Depending of experiments, 8 weeks old mice were intraperitoneally injected with PBS, the peptide of formula (I), the peptide of formula (II) and SCR. Details of peptide use, dose and mode of administration and time course are specified in the description of FIG. 11. Given the short elimination half-life of the peptide of formula (I), osmotic pumps were also used to insure a continuous delivery for 14 days. Briefly, 200 μL osmotic pump were filled with 10 mg/mL of the peptide of formula (I) in PBS and were implanted subcutaneously into the mice according to the manufacturer's instructions (Alzet®, model pump #2002), to insure the peptide of formula (I) release at an estimated rate of 0.5 μL/h, which corresponds to an estimated amount of delivery of 5 mg of the peptide of formula (I) per kilogram of body weight per day (5 mg/kg BW/day). Following treatments, mice were fasted for 2 h and were then anesthetized by intra-peritoneal injection of ketamine and xylazine hydrochloride. The common bile duct was ligated close to the duodenum and the gallbladder was punctured and cannulated with a polyethylene-10 catheter. After 30 min of stabilization, newly secreted bile was collected for 30 min. During bile collection, body temperature was stabilized using a temperature mattress. Bile flow (expressed in μL/min/100 g of body weight) was determined gravimetrically assuming a density of 1 g/mL for bile. At the end of experiment, blood was collected and mice were sacrificed by cervical dislocation.
For bile acid analysis, 1 μL of bile samples was diluted with 99 μL of milliQ water then incubated with the work reagent (6 mg NAD, 0.5 M hydrazine hydrate buffer, 0.05 M Na-pyrophosphate) for 4 min. The mix was then incubated with a start reagent (0.03 M Tris-EDTA; 0.3 U/mL 3-alpha-OH steroid dehydrogenase) and measured for 30 min, under excitation of 340/330 nm and emission of 440/420 nm. For phospholipid analysis, 1 μL of bile samples was diluted with 49 μL of milliQ water then incubated with the work reagent (100 mM MOPS, pH 8; 0.55 mM HVA; 20 mM CaCl; 11 U/mL Phospholipase-D; 1.66 U/mL Peroxidase; 0.1% Triton X-100) for 4 min. The mix was then incubated with a start reagent (1 M MOPS, pH 8, 50 U/mL Choline oxidase) and measured for 67.5 min, under excitation of 340/330 and emission of 440/40. For cholesterol analysis, 1 μL of bile samples was diluted with 29 μL of milliQ water then was incubated with the work reagent (100 mM MOPS, pH 8, 0.25 mM HVA; 0.1% Triton X-100) for 4 min. The mix was then incubated with a start reagent (0.1 M MOPS, pH 8, 0.06 U/mL cholesterol oxidase, 0.15 U/mL cholesterol esterase, 0.45 U/mL Peroxidase, 0.06 mM Taurocholate) and measured for 45 min, under excitation of 340/330 nm and emission of 440/420 nm. Secretion values of bile acids, phospholipids and cholesterol were calculated by multiplying concentration and bile flow values, and expressed as nmol/min/100 g body weight (BW).

[1] = continuous delivery (osmotic pump, sc) 14 days, 5 mg/kg BW/day

Molecule | bile flux (intraperitoneal bolus 25 mg/kg) | biliary secretion of bile acids (intraperitoneal bolus 25 mg/kg) | biliary secretion of cholesterol (intraperitoneal bolus 25 mg/kg) | biliary flux and biliary lipid secretion, compared with the 25 mg/kg dose (bolus injection 12 mg/kg) | biliary cholesterol secretion [1] | biliary flux [1] | time following injection up to which the effect on bile flux and biliary secretion is maintained (intraperitoneal bolus 25 mg/kg)
CCCCCCCCCCCCCCCC(=O)NCCCC[C@H](NC(=O)[C@H](CCC(=O)O)NC(=O)[C@H](CCCNC(=N)N)NC(=O)[C@H](CO)NC(=O)[C@H](CCC(N)=O)NC(=O)[C@H](C)NC(=O)[C@H](CCCNC(=N)N)NC(=O)[C@H](Cc1ccccc1)NC(=O)[C@H](Cc1ccc(O)cc1)NC(=O)[C@H](CCCNC(=N)N)NC(=O)[C@H](CCC(=O)O)NC(=O)[C@H](CCC(=O)O)NC(=O)[C@H](CCC(=O)O)NC(=O)[C@H](C)NC(=O)[C@H](CCC(N)=O)NC(=O)[C@H](CCC(=O)O)NC(=O)[C@H](CCCNC(=N)N)NC(=O)[C@H](CCCCN)NC(=O)CNC(=O)[C@H](Cc1ccccc1)NC(=O)[C@H](C)NC(=O)CNC(=O)CNC(=O)[C@H](C)NC(=O)[C@H](CCC(=O)O)NC(=O)[C@H](CCCNC(=N)N)NC(=O)[C@@H](NC(=O)[C@H](CO)NC(=O)CNC(=O)[C@H](C)NC(=O)CNC(=O)[C@H](CCCNC(=N)N)NC(C)=O)[C@@H](C)CC)C(N)=O [peptide of formula (II), CH3CO-[SEQ ID NO: 1]-K-[palmitoyl]-NH2] (Ac-RGAGSIREAGGAFGKREQAEEERYFRAQSREK(Palmitoyl)-NH2) | stimulated | stimulated | stimulated |  |  |  | 
Ac-RGAGSIREAGGAFGKREQAEEERYFRAQSRE-NH2 [peptide of formula (I), CH3CO-[SEQ ID NO: 1]-NH2] | significant increase | significant increase | significant increase | less efficient | stimulated | stimulated | up to 4 h
